Here are results for 31 molecules from patent EP3354264A1, “PROPHYLAXIS AND TREATMENT OF NEISSERIA GONORRHOEAE EYE INFECTION” (Kingston University Higher Education Corporation, priority 2017, dated 2018).

Structures are written as SMILES. Values after ≈ are worked out from the molar mass of the structure shown. Like-named read-outs stand apart in the source and are kept apart here. Where only a bound is given, the exact number is not on record here.

Series [1] deals with Neisseria gonorrhoeae strain NCCP11945. The series is described as follows: Growth inhibition screen of organic acids. The following applies: strain NCCP11945, in vitro, 1 mM. The class given is cell-based. As to the method: (§1) The well characterised N. gonorrhoeae strain NCCP11945 (Chung GT et al. (2008) Complete genome sequence of Neisseria gonorrhoeae NCCP11945. Journal of Bacteriology 190: 6035-6036) was used in the screening stage of this experiment. Eight isolates that were obtained from Public Health England from various European locations were used in the log reduction assays. All isolates were first cultured for 24 hours prior to testing by plating on GC solid medium (Oxoid Limited, Hampshire, UK) with Kellogg supplements and incubating at 37 °C, 5% CO2 (Kellogg DS, Jr., et al., (1963), J Bacteriol 85: 1274-1279).
(§2) A full list of all the organic acids tested in this study is in Table 1. The tested compounds include saturated and unsaturated fatty acids, monoglycerides, dicarboxylic acids, and fatty acid sodium salts. All compounds investigated were resuspended at a concentration of 100 mM in ethanol unless stated. All chemicals were obtained from Sigma-Aldrich (Poole, Dorset, UK).
Other organic acids were also active at this concentration, as noted in Table 1.

For series [2] the test system is unchanged. The experiment in a line: Measurement of bactericidal action (log reduction). The class given is cell-based. The following applies: for log reduction at 1000 µM: Neisseria gonorrhoeae. The method, then: as §1, §2
(§3) Log reductions were done using the same method as in Bergsson et al., (1999), Antimicrob Agents Chemother 43: 2790-2792. Briefly, cells were suspended in GC broth (18 g/L GC Base (Oxiod, Limited) with added defined supplements) to an optical density of 0.3 at 520 nm which is approximately equivalent to 107 - 108 cells per millilitre (Macfarlane DE et al. (1980) Improved media for the culture of Neisseria gonorrhoeae. J Med Microbiol 13: 597-607). Five hundred microliters of the suspension was then added to 5 µl of the 100 mM stocks to give a final concentration of 1 mM. A negative control was also done to calculate the reduction in bacterial titre by adding 500 µl to 5 µl ethanol. The tubes were then mixed at room temperature for two minutes and immediately diluted in a 10 fold dilution series down to 10-4. The dilutions were plated by spreading 10 µl on a quarter of a plate and 100 µl of the neat solution was also plated. Plates were incubated at 37 °C for 48 hours. All samples were plated in duplicate. A reduction in viable cell count by more than 4 log10 was deemed to be bactericidal and was selected for further investigation. Bactericidal compounds were then tested at concentrations of 0.75, 0.5, and 0.25 mM (0.125 mM was also used in some potent compounds) to find the minimum bactericidal concentration. Additional testing at lower concentrations was also done on the eight clinical isolates of European origin.

Series [3] relates to panel of nine N. gonorrhoeae isolates (strain NCCP11945 and eight isolates from Public Health England). The series is described as follows: Minimum bactericidal concentration by log reduction, panel of isolates. The series is classed as cell-based. The following applies: Neisseria gonorrhoeae, 2 min; lowest concentration tested giving an average 4 log10 reduction after two minute exposure; nine isolates; read-out: Minimum bactericidal concentration. As to the method: as §1, §3
As shown by the results in Table 3 which presents data on the log reductions of bacterial cell counts, against a panel of nine N. gonorrhoeae isolates (strain NCCP11945 and eight isolates from Public Health England), myristoleic acid (C14:1cΔ9), palmitoleic acid (C16:1cΔ9), linolenic acid (C18:3cΔ9,12,15), and monocaprin (C10) have a minimal bactericidal concentration, defined as the lowest concentration tested to give an average 4 log10 reduction in bacterial count after a two minute exposure, of 0.5 mM. Against a panel of nine N. gonorrhoeae isolates, lauric acid (C12:0), tridecanoic acid (C13:0), and sodium dodecanoate have a minimal bactericidal concentration of 0.75 mM.

Series [4] concerns Neisseria gonorrhoeae strain NCCP11945. The series is described as follows: Log reduction in artificial tear fluid. The series is classed as cell-based. Conditions: artificial tear fluid containing calcium chloride; two minute exposure; Figure 8. As to the method:
Artificial tear fluid was made as in Mirejovsky et al., Optometry and Vision Science, (1991), 68: 858-864. […] Neisseria gonorrhoeae strain NCCP11945 was used in these experiments. As the previous log reductions, […] were suspended in GC broth. The cell suspension was centrifuged to remove the culture medium and the bacteria resuspended in the tear fluid. This was then added to the concentrated organic acid candidates. The cells were then counted again after two minute exposure to estimate any reduction due to the exposure to the fatty acid.
In a first experiment, the artificial tear fluid formulation includes calcium chloride to mimic the calcium in natural tears. As shown by the results in Figure 8, the anti-gonococcal properties of myristoleic acid (C14:1cΔ9), palmitoleic acid (C16:1cΔ9), linolenic acid (C18:3cΔ9,12,15), and monocaprin(C10) are retained in the artificial tear fluid formulation containing calcium chloride.
In a second experiment, calcium chloride was omitted from the artificial tear fluid formulation. The results in Figure 9 indicate that the anti-gonococcal properties of lauric acid (C12:0), tridecanoic acid (C13:0), and sodium dodecanoate were retained in the artificial tear fluid formulation without.

A short description of a further series: in vitro. The series is classed as cell-based, bovine. The following applies: red blood cells, bovine RBCs, shaken 1 hour at room temperature. As to the method: Whole bovine blood was obtained from a local slaughter house (ABP, Guildford, Surrey, UK), adding 90 ml blood to 10 ml of 110 mM tri-sodium citrate anticoagulant. RBCs were isolated the same day. The RBCs were washed by three repeats of centrifugation (1,500 x g for 10 minutes) and resuspension in PBSG. Testing was done following European Union Reference Laboratory for alternatives to animal testing (EURL-ECVAM) guidelines (Lewis RW (2010) DB-ALM Protocol No. 99: Red blood cell (RBC) Test System. EURL ECVAM). The organic acids were made up in DMSO and diluted to a DMSO concentration maximum of 10 % (v/v). Samples were shaken at room temperature for 1 hour and then centrifuged at 10,000 rpm for 2 minutes. An aliquot of 750 µl of the supernatant was taken and absorbance at […] tested.

[5] abbreviates: 2 min, strain NCCP11945, 1 mM, 2 minutes, read-out: Log reduction of Neisseria gonorrhoeae.
[6] abbreviates: NCCP11945, 2 min, read-out: Log reduction of Neisseria gonorrhoeae, strain NCCP11945, 1 mM, 2 minutes.
[7] abbreviates: strain NCCP11945, 1 mM, 2 minutes.

Consider `CCCCCCCC(=O)OCC(O)CO` (racemic) [1-Octanoyl-rac-Glycerol C8, 1-Octanoyl-rac-Glycerol], for which the “Inhibits growth of Neisseria gonorrhoeae” value in series [1] was “Yes”.

With `O=C(O)CCCCC(=O)O` [Adipic acid], the “Inhibits growth of Neisseria gonorrhoeae” value in series [1] is on record as “No”.

As to `CCCCC/C=C\C/C=C\C/C=C\C/C=C\CCCC(=O)O` [Arachidonic acid 20:4 cΔ5,8,11,14, Arachidonic acid], the “Inhibits growth of Neisseria gonorrhoeae” value in series [1] is reported as “Yes”.

In the case of `O=C(O)CCCCCCCC(=O)O` [Azelaic acid], the “Inhibits growth of Neisseria gonorrhoeae” value in series [1] is on record as “No”.

Regarding `CCCCCCCCCC(=O)O` [Capric acid/Decanoic acid 10:0, Decanoic acid], the “Inhibits growth of Neisseria gonorrhoeae” value in series [1] is listed as “No”.

On to `CCCCCCCC(=O)O` [Caprylic/Octanoic acid 8:0, Octanoic acid], for which the “Inhibits growth of Neisseria gonorrhoeae” value in series [1] is given as “No”.

`CCCCCC/C=C\CCCCCCCCCC(=O)O` [Cis-Vaccenic acid 18:1 cAll, Cis-Vaccenic acid]: in series [1], the “Inhibits growth of Neisseria gonorrhoeae” value is reported as “No”.

For `CCCCCCCC/C=C/CCCCCCCC(=O)O` [Elaidic acid 18:1 tΔ9, Elaidic acid], the log reduction at 1000 µM in series [2] (setting [5]) was determined as 0.5. Besides, the “Inhibits growth of Neisseria gonorrhoeae” value in series [1] is recorded as “Yes”.

Turning to `CCCCCCCC/C=C\CCCCCCCCCCCC(=O)O` [Erucic acid 22:1 cΔ13, Erucic acid], in series [2] (setting [6]), the log reduction at 1000 µM turned out to be 0. The “Inhibits growth of Neisseria gonorrhoeae” value in series [1] was “Yes”.

For the molecule `CCCCCCCCCCCCCCCCC(=O)O` [Heptadecylic acid 17:0, Heptadecylic acid], the “Inhibits growth of Neisseria gonorrhoeae” value in series [1] was “No”.

As for `CCCCCCCCCCCCCC(=O)OC(C)C` [Isopropyl myristate], in series [1], the “Inhibits growth of Neisseria gonorrhoeae” value is listed as “No”.

For `CCCCCCCCCCCCCCCC(=O)OC(C)C` [Isopropyl palmitate], the “Inhibits growth of Neisseria gonorrhoeae” value in series [1] was “No”.

For the molecule `CCCCC/C=C\C/C=C\CCCCCCCC(=O)O` [Linoleic acid 18:2 cΔ9,12, Linoleic acid], the log reduction at 1000 µM in series [2] (setting [5]) was determined as 1.6. The “Inhibits growth of Neisseria gonorrhoeae” value in series [1] is “Yes”.

`CC/C=C\C/C=C\C/C=C\CCCCCCCC(=O)O` [Linolenic acid 18:3 cΔ9,12,15, α-linolenic acid]: the MBC in series [3] stood at 500 µM (≈ 139 µg/mL). Also, the log reduction at 1000 µM in series [2] (setting [5]) was over 6. In addition, the “Log reduction of Neisseria gonorrhoeae” value in series [2] (setting [7]) is on record as “able to cause a log reduction”. In addition, the “anti-gonococcal properties in artificial tear fluid” value in series [4] is reported as “retained”. The values for the HC50 at 1 h in the series “in vitro” (read-out: H50) and in the series “in vitro” (read-out: H50 (mg/L)) were 70 to 140 µM and 20 to 40 mg/L, respectively. The results for the “Inhibits growth of Neisseria gonorrhoeae” value in series [1] and in series [1] (listed as linolenic acid) were “Yes” and “able to inhibit growth”, respectively.

In the case of `CCCCCCCCCCCC(=O)OCC(O)CO` (centres unmarked) [Monolaurin C12, Monolaurin], the log reduction at 1000 µM in series [2] (setting [6]) turned out to be 3.4. For the same molecule, the “Inhibits growth of Neisseria gonorrhoeae” value in series [1] is listed as “Yes”.

As for `CCCCCCCCCCCCCC(=O)OCC(O)CO` (centres unmarked) [Monomyristin C14, Monomyristin], in series [2] (setting [6]), the log reduction at 1000 µM came to 0.6. For the same molecule, the “Inhibits growth of Neisseria gonorrhoeae” value in series [1] is recorded as “Yes”.

As to `CCCCCCCCCCCCCC(=O)O` [Myristic acid 14:0, Myristic acid], in series [2] (setting [7]), the “Log reduction of Neisseria gonorrhoeae” value is given as 1.5. Moreover, the “Inhibits growth of Neisseria gonorrhoeae” value in series [1] is “Yes”.

`CCCCCCCC/C=C\CCCCCCCC(=O)O` [Oleic acid 18:1 cΔ9, Oleic acid]: the log reduction at 1000 µM in series [2] (setting [5]) is 1. In addition, the “Inhibits growth of Neisseria gonorrhoeae” value in series [1] is listed as “Yes”.

As to `CCCCCCCCCCCCCCCC(=O)O` [Palmitic acid 16:0, Palmitic acid], the “Inhibits growth of Neisseria gonorrhoeae” value in series [1] is reported as “No”.

As to `CCCCCC/C=C\CCCCCCCC(=O)O` [Palmitoleic acid 16:1 cΔ9, (9Z)-hexadec-9-enoic acid], the MBC in series [3] was 500 µM (≈ 127 µg/mL). Moreover, the log reduction at 1000 µM in series [2] (setting [5]) is over 6. The “Log reduction of Neisseria gonorrhoeae” value in series [2] (setting [7]) was “able to cause a log reduction”. In series [4], the “anti-gonococcal properties in artificial tear fluid” value is recorded as “retained”. In addition, the HC50 at 1 h in “in vitro” (read-out: H50) lay within 80 to 160 µM; in the series “in vitro” (read-out: H50 (mg/L)), 20 to 40 mg/L. In addition, the “Inhibits growth of Neisseria gonorrhoeae” value in series [1] was “Yes”; in series [1] (listed as palmitoleic acid), “able to inhibit growth”.

As to `CCCCCCCCCCCCCCC(=O)O` [Pentadecylic acid 15:0, Pentadecylic acid], in series [2] (setting [5]), the log reduction at 1000 µM worked out at 0.5. Moreover, in series [1], the “Inhibits growth of Neisseria gonorrhoeae” value is listed as “Yes”.

For the molecule `O=C(O)CCCCCC(=O)O` [Pimelic acid], in series [1], the “Inhibits growth of Neisseria gonorrhoeae” value was “No”.

`CCCCCC[C@@H](O)C/C=C\CCCCCCCC(=O)O` [Ricinoleic acid]: in series [2] (setting [5]), the log reduction at 1000 µM turned out to be 3.5. In series [1], the “Inhibits growth of Neisseria gonorrhoeae” value is “Yes”.

For `O=C(O)CCCCCCCCC(=O)O` [Sebacic acid], in series [1], the “Inhibits growth of Neisseria gonorrhoeae” value was “No”.

As to `CCCCCCCCCCCCCC(=O)[O-].[Na+]` [Sodium myristate], the “Log reduction of Neisseria gonorrhoeae” value in series [2] (setting [7]) is 0.5. The “Inhibits growth of Neisseria gonorrhoeae” value in series [1] is “Yes”.

As for `C/C=C/C=C/C(=O)O` [Sorbic acid 6:2 tΔ2,4, Sorbic acid], the “Inhibits growth of Neisseria gonorrhoeae” value in series [1] is on record as “No”.

On to `CCCCCCCCCCCCCCCCCC(=O)O` [Stearic acid 18:0, Stearic acid], for which the “Inhibits growth of Neisseria gonorrhoeae” value in series [1] is listed as “No”.

In the case of `O=C(O)CCCCCCC(=O)O` [Suberic acid], the “Inhibits growth of Neisseria gonorrhoeae” value in series [1] is listed as “No”.

For the molecule `O=C(O)CCC(=O)O` [Succinic acid], the “Inhibits growth of Neisseria gonorrhoeae” value in series [1] is reported as “No”.

Take `CCCCCCCCCCC(=O)O` [Undecanoic acid 11:0, Undecanoic acid]: the log reduction at 1000 µM in series [2] (setting [5]) was found to be 0.2. For the same molecule, in series [1], the “Inhibits growth of Neisseria gonorrhoeae” value is recorded as “Yes”.

For `CCCCCC/C=C/CCCCCCCCCC(=O)O` [trans-Vaccenic acid 18:1 tΔ11, trans-Vaccenic acid], the “Inhibits growth of Neisseria gonorrhoeae” value in series [1] was “No”.
